# Data as given in patent publication US20230236169A1, “NANOPLASMONIC BIOSENSOR FOR DETECTING AUTOPHAGY MARKER WITH HIGH SENSITIVITY, AND METHOD OF DETECTING AUTOPHAGY MARKER AND METHOD OF SCREENING DRUG CANDIDATE USING SAME” (KOREA UNIVERSITY RESEARCH AND BUSINESS FOUNDATION, priority 2021, published 2023).
# Legend:
# Assay type in all cases: cell-based, human
# BT-474 [1] = test: Cell viability (EZ-Cytox); settings: Baf A 50 nM or Tz 20 μg mL^−1; 6, 24 and 48 hours
# Protocol: (§1) Each cell line was preincubated in 96 wells at 5×10^4 cells per well in a CO2 incubator (37° C., 5% CO2, 2-24 hours). […] Each well was treated with 10 μL of EZ-Cytox (DoGen Bio, Korea), followed by further incubation for at least 1 hour. Thereafter, UV-vis absorbance at 450 nm was recorded.
# MDA-MB-231 [2] = test: Cell viability (EZ-Cytox); settings: Baf A 50 nM or Tz 20 μg mL^−1; 6, 24 and 48 hours
# Protocol: as §1
# BT-474 [3] = test: LC3 nanoplasmonic biosensor analysis of cell lysates of BT-474 cells; settings: 12 hours
# Protocol: (§2) Each cell line was cultured in a 10-cm dish under appropriate conditions before cell lysate preparation. […] Caov-3 cells were treated with bafilomycin A1 (1 μM) and allowed to starve for 24 to 48 hours before adding a cytosolic LC3 removal reagent. […] Pellet cells were then washed with ice-cold PBS and incubated for 15 minutes with RIPA lysis buffer and inhibitors (Halt™ Protease and Phosphatase Inhibitor Cocktail). Thereafter, sonication and centrifugation were repeated to afford a cell lysate at a final concentration of 1.6×10^6 cells/mL.
# Cleanly washed microscope coverslip slides were pretreated with 10% (v/v) APTES for 1 hour, and then drop-coated with 10 μL of a diluted immuno-AuNR solution (OD: about 0.05). A closed water-bath microfluidic detection chamber including two coverslip slides with a gasket interposed therebetween was assembled and securely fixed for sample incubation and biosensing (FIG. 1). The detection chamber was then mounted on an automated dark-field microscope stage and a syringe pump was connected to the inlet of the detection chamber. Unbound immunogold on the surface of the coverslip slides was removed using ultrapure water at a flow rate of 100 μL min^−1 for 1 hour, followed by treatment with 1 mL of a 0.2 M ethanolamine solution for 30 minutes to inactivate unreacted functional groups. […]
# The LSPR wavelength of each immunogold was recorded three times throughout the experiment: 1) before LC3 sample injection, 2) after LC3 sample incubation, and 3) after PEBP1 treatment. The LSPR wavelength of each AuNR stabilized on the bottom coverslip slide was rapidly recorded with an imaging microscope system (SERA, NOST, Seoul, Korea). […] The LSPR mapping results associated with the dark-field images were visualized on a monitor with RAON computer software (NOST, Seoul, Korea), and the plasmon shift (Δλmax) of each LSPR wavelength was calculated using OriginPro 9 software.
# Caov-3 cell line [4] = test: LC3 nanoplasmonic biosensor analysis of cell lysates of Caov-3 cells
# Protocol: as §2, with “Caov-3 cells were treated with bafilomycin A1 (1 μM) and allowed to starve for 24 to 48 hours before adding a cytosolic LC3 removal reagent.” left out
# Cleanly washed microscope coverslip slides were pretreated with 10% (v/v) APTES for 1 hour, and then drop-coated with 10 μL of a diluted immuno-AuNR solution (OD: about 0.05). A closed water-bath microfluidic detection chamber including two coverslip slides with a gasket interposed therebetween was assembled and securely fixed for sample incubation and biosensing (FIG. 1). The detection chamber was then mounted on an automated dark-field microscope stage and a syringe pump was connected to the inlet of the detection chamber. Unbound immunogold on the surface of the coverslip slides was removed using ultrapure water at a flow rate of 100 μL min^−1 for 1 hour, followed by treatment with 1 mL of a 0.2 M ethanolamine solution for 30 minutes to inactivate unreacted functional groups. Thereafter, at least 10 μL of LC3 sample and PEBP1 (2 μg mL^−1) were injected into the chamber and incubated for 4 hours and 30 minutes, respectively, and contaminants were washed with ultrapure water before biosensing.
# The LSPR wavelength of each immunogold was recorded three times throughout the experiment: 1) before LC3 sample injection, 2) after LC3 sample incubation, and 3) after PEBP1 treatment. The LSPR wavelength of each AuNR stabilized on the bottom coverslip slide was rapidly recorded with an imaging microscope system (SERA, NOST, Seoul, Korea). An automated surface scanning and imaging module with a high-resolution EMCCD detector (888, iXon Life, Oxford Instrument, Belfast, Northern Ireland) was connected to large-area (130×130 μm) computer-assisted high-speed LSPR mapping through a single click. The LSPR mapping results associated with the dark-field images were visualized on a monitor with RAON computer software (NOST, Seoul, Korea), and the plasmon shift (Δλmax) of each LSPR wavelength was calculated using OriginPro 9 software.
# Then, the LSPR peak shift of the Caov-3 cell line treated with bafilomycin A or not treated therewith was represented in the form of a cumulative bar graph, as shown in FIG. 13. Here, the regular and hatched boxes represent the measured first and second LSPR shifts, respectively, and error bars correspond to the standard errors measured in 60 immuno-AuNRs.
# Caov-3 cell line [5] = test: LC3 Western blotting and LC3 ELISA of Caov-3 cell lysates; settings: Baf A for 20 minutes and 24 hours, FIG. 14
# Protocol: as §2
# The cell lysate prepared in Experimental Example 2 was quantified with a BCA assay kit (Thermo Fisher Scientific), and 40 μg thereof was loaded into each well. SDS-PAGE was conducted under conditions of 70 minutes or more, 15% gel, and 90 V. Primary (LC3B antibody, Cell Signaling) and secondary (goat anti-mouse, GenDEPOT) antibodies to LC3 were diluted 1:1000 and 1:5000, respectively, and respective antibodies to actin (anti beta-actin, AbFrontier) were also diluted 1:1000 and 1:10000. Other specific conditions were the same as the general protocol for Western blotting.
# MDA-MB-231 [6] = test: LC3 nanoplasmonic biosensor analysis of cell lysates of MDA-MB-231 cells; settings: 12 hours
# [7] = before the additional treatment (read as 50 nM Baf A alone)
smiles,measurement,setting,value
"CO/C1=C\C(C)=C\[C@@H](C)[C@@H](O)[C@@H](C)C/C(C)=C/C=C/[C@H](OC)[C@@H]([C@@H](C)[C@@H](O)[C@H](C)[C@@]2(O)C[C@@H](O)[C@H](C)[C@@H](C(C)C)O2)OC1=O [Baf A, bafilomycin A]",cell viability over time,BT-474 [1],gradual cell death
same,cell viability over time,MDA-MB-231 [2],gradual cell death
same,change of first-step LSPR Δλmax and LC3-II ratio,"BT-474 [3]; 50 nM Baf A, versus no Baf A",greater first-step LSPR Δλmax and an increased LC3-II ratio
same,LC3-II ratio (Equation 1),BT-474 [3]; [7],68.1%
same,first-step LSPR Δλmax,BT-474 [3]; [7],7.23±0.33 nm
same,LC3-II composition (Equation 1),Caov-3 cell line [4]; Baf A for 20 minutes,6.78%
same,LC3-II composition (Equation 1),Caov-3 cell line [4]; Baf A for 24 hours,78.8%
same,first LSPR peak shift,Caov-3 cell line [4]; Baf A for 24 hours,10.2±0.25 nm
same,second LSPR peak shift,"Caov-3 cell line [4]; Baf A for 24 hours, after PEBP1",1.53±0.29 nm
same,LC3 expression by Western blotting and ELISA,Caov-3 cell line [5],LC3-II accumulation was induced
same,change of first-step LSPR Δλmax and LC3-II ratio,"MDA-MB-231 [6]; 50 nM Baf A, versus no Baf A",greater first-step LSPR Δλmax and an increased LC3-II ratio
same,first-step LSPR Δλmax,MDA-MB-231 [6]; [7],10.40±0.35 nm
